Columns and labels:
[1] = Cytotoxicity against rat K-ras transformed NRK K/1 cells after 5 days; assay type: cell-based; conditions: NRK K/1, 120 h, read-out: LC50 (the source's name)
[2] = Cytotoxicity against rat NRK 52E cells after 5 days; assay type: cell-based; conditions: read-out: LC50
[3] = Cytotoxicity against rat H-ras transformed NRK H/1.2 cells after 5 days; assay type: cell-based; conditions: NRK H/1.2, 120 h, read-out: LC50 (the source's name)
[4] = Toxicity in mouse; assay type: organism-based; conditions: in vivo
[5] = Cytotoxicity against rat N-ras transformed NRK N/4.2 cells after 5 days; assay type: cell-based; conditions: NRK N/4.2, 120 h, read-out: LC50 (the source's name)
[6] = Cytotoxicity against mouse 3LL cells after 5 days; assay type: cell-based; conditions: 120 h, read-out: LC50 (the source's name)
[7] = Differential index, LC50 for rat NRK 52E cells to LC50 for rat N-ras transformed NRK N/4.2 cells; assay type: ADME, cell-based; conditions: NRK 52E cells versus N-ras transformed NRK N/4.2 cells
[8] = Differential index, LC50 for rat NRK 52E cells to LC50 for rat K-ras transformed NRK K/1 cells; assay type: ADME, cell-based; conditions: NRK 52E cells versus K-ras transformed NRK K/1 cells
[9] = Differential index, LC50 for rat NRK 52E cells to LC50 for mouse 3LL cells; assay type: ADME, cell-based; conditions: NRK 52E cells versus 3LL cells
[10] = tested on: Mus musculus; experiment: Toxicity in nude mouse at 150 mg/kg/day assessed as death after 8 days; assay type: organism-based; conditions: in vivo, 192 h
[11] = tested on: Mus musculus; experiment: Toxicity in nude mouse at 300 mg/kg/day assessed as death after 8 days; assay type: organism-based; conditions: in vivo, 192 h
[12] = Differential index, LC50 for rat NRK 52E cells to LC50 for rat H-ras transformed NRK H/1.2 cells; assay type: ADME, cell-based; conditions: NRK 52E cells versus H-ras transformed NRK H/1.2 cells
[13] = tested on: NRK; experiment: Inhibition of tumor growth in CD1 nu/nu mouse implanted with rat K-ras transformed NRK K/1 cells at 300 mg/kg/day, ip after 8 days relative to control; assay type: functional; conditions: 192 h, route intraperitoneal
[14] = tested on: NRK; experiment: Inhibition of tumor growth in CD1 nu/nu mouse implanted with rat K-ras transformed NRK K/1 cells at 150 mg/kg/day, ip after 8 days relative to control; assay type: functional; conditions: 192 h, route intraperitoneal
[15] = tested on: Mus musculus; experiment: Toxicity in nude mouse at 50 mg/kg/day after 7 days; assay type: organism-based; conditions: in vivo, 168 h
[16] = tested on: Mus musculus; experiment: Toxicity in nude mouse at 100 mg/kg/day after 7 days; assay type: organism-based; conditions: in vivo, 168 h
[17] = tested on: NRK; experiment: Inhibition of tumor growth in CD1 nu/nu mouse implanted with rat K-ras transformed NRK K/1 cells at 100 mg/kg/day, ip for 7 days on day 10 relative to control; assay type: functional; conditions: route intraperitoneal
[18] = tested on: Mus musculus; experiment: Toxicity in nude mouse at 10 mg/kg/day after 7 days; assay type: organism-based; conditions: in vivo, 168 h

SMILES	CC50 [1]	CC50 at 120 h [2]	CC50 [3]	MTD [4]	CC50 [5]	CC50 [6]	selectivity ratio [7]	selectivity ratio [8]	selectivity ratio [9]	Activity [10]	Activity [11]	selectivity ratio [12]	inhibition in vivo at 300 mg/kg/day [13]	inhibition in vivo at 150 mg/kg/day [14]	Activity [15]	Activity [16]	inhibition in vivo at 100 mg/kg/day [17]	Activity [18]
CCCC(=O)NC1=CC(=O)c2ccc(C=O)nc2C1=O	> 3300 nM	3000 nM	3.3 µM	< 10 mg/kg	> 3300 nM	2500 nM	–	–	–	–	–	–	–	–	–	–	–	–
CC(=O)NC1=CC(=O)c2ccc(-c3[nH]c(C(N)=O)cc4c5ccccc5nc3-4)nc2C1=O	350 nM	900 nM	0.23 µM	400 mg/kg	220 nM	210 nM	4.1	2.5	4.3	–	–	–	–	–	–	–	–	–
CCCCCCCCOC(=O)c1cc2c([nH]c3ccccc32)c(-c2ccc3c(n2)C(=O)C(NC(C)=O)=CC3=O)n1	250 nM	> 33000 nM	7.6 µM	–	9000 nM	> 33000 nM	3.6	> 132	–	Non-toxic	Non-toxic	> 4.3	78%	–	–	–	–	–
CCCC(=O)NC1=CC(=O)c2ccc(C)nc2C1=O	> 3300 nM	2000 nM	> 3.3 µM	< 10 mg/kg	> 3300 nM	2500 nM	–	–	–	–	–	–	–	–	–	–	–	–
CC(=O)NC1=CC(=O)c2ccc(-c3nc(C(=O)OCCC(C)C)cc4c3[nH]c3ccccc34)nc2C1=O	90 nM	1620 nM	1.42 µM	–	1500 nM	1690 nM	1.1	18	1	Non-toxic	Non-toxic	1.1	–	88%	–	–	–	–
CC(=O)NC1=CC(=O)c2ccc(C)nc2C1=O	5900 nM	2400 nM	4.4 µM	< 10 mg/kg	–	2000 nM	–	–	–	–	–	–	–	–	–	–	–	–
NC1=CC(=O)c2ccc(-c3[nH]ccc4c5ccccc5nc3-4)nc2C1=O [DECARBOXYDEMETHYLLAVENDAMYCIN]	31 nM	100 nM	0.11 µM	400 mg/kg	60 nM	250 nM	1.6	3.2	0.4	–	–	0.9	–	–	–	–	–	–
COC(=O)c1[nH]c(-c2ccc3c(n2)C(=O)C(NC(C)=O)=CC3=O)c2nc3ccccc3c-2c1C	100 nM	900 nM	0.7 µM	–	–	> 33000 nM	–	9	< 0.03	–	–	1.3	–	–	Non-toxic	Non-toxic	69%	Non-toxic
CC(=O)NC1=CC(=O)c2ccc(-c3nc(C(=O)OCCC(C)C)c(C)c4c3[nH]c3ccccc34)nc2C1=O	5000 nM	4160 nM	4.3 µM	–	3890 nM	7400 nM	1.2	0.9	0.6	–	–	1.1	–	–	–	–	–	–
